Measured values published in publication PMC9120013, “Ribosome inhibition by C9ORF72-ALS/FTD-associated poly-PR and poly-GR proteins revealed by cryo-EM” (Nature Communications, 2022).
Ends that are not written are not given here.

Legend:
[1] = system: translation in E. coli cell lysates; assay: Nanoluciferase translation in E. coli cell lysate (NEBExpress); type: biochemical; conditions: n=3
Experimental: E. coli cell lysates (NEBExpress, NEB) were used to investigate bacterial translation inhibition by GR20 and PR20. We monitored the translation of an in vitro transcribed mRNA encoding a Shine-Dalgarno sequence preceding the nanoluciferase (Promega) open reading frame. The mRNA was prepared by in vitro transcription of a PCR-template obtained by amplifying the nanoluciferase open reading frame from the plasmid described in reference with the following primers: T7 + SD-forward: […], based on the pet28a+ plasmid and reverse: […]. […] Then 1 μl of water or different concentrations (10-100 μM) of PR20 or GR20 or 200 μM erythromycin were added and the plate was incubated at 37 °C for 5 min inside of an Infinite m1000 pro microplate reader (Tecan). Next, the nanoluciferase mRNA was added to the final concentration of 20 ng/μl in a 10-μl reaction. Translation reactions were incubated at 37 °C for 20 min, luminescence of the samples was continuously measured by the microplate reader to record the time course of protein synthesis. Time progress curves, obtained in the experiments, were processed in MS Excel, and the rate of change of the relative light units between 100 and 200 s was measured, the mean and SEM of three experiments is reported in column graph in Supplementary Fig. 2a.

rabbit 80S ribosomes = assay: Kinetic peptidyl transfer (puromycin) assay on rabbit 80S ribosomes; type: biochemical
Description: To test the effects of PR20 on the mammalian peptidyl transferase, 80S ribosomes were purified from rabbit reticulocyte lysate (Green Hectares) and dissociated into 40S and 60S subunits as described in the section entitled “Cryo-EM complex of mammalian 80S ribosome with PR20”. A model leaderless mRNA fragment placing the AUG codon in the P-site and the UUC codon in the A site (CCAC AUG UUC CCCCCCCCCCCCCCCCCC), was synthesized by IDT. The 80S•mRNA•fMet-tRNA^fMet complex with PRn (where n = 10, 20, or 40) or GR20 was assembled as follows. one micrometer 60S subunit was mixed with the DPR (starting with the initial DPR concentration of 33x relative to its final concentration in the reaction) in Assembly Buffer containing 20 mM Tris-acetate (pH 7.0), 100 mM KOAc, 10 mM Mg(OAc)2, and the mixture was incubated for 5 min at 30 °C. […] 1095 nM [^35S]-fMet-tRNA^fMet and the 60S solution were added (0.5 volumes of the 40S solution), resulting in the following concentrations: 330 nM 60S, 400 nM 40S, 730 nM tRNA, 11 µM mRNA and 11x of final concentration of a DPR in the buffer (20 mM Tris-acetate (pH 7.0), 100 mM KOAc, 10 mM Mg(OAc)2). The solution was incubated for 5 min at 30 °C. The solution was diluted ten times with the same buffer, then puromycin (prepared in the same buffer) was added and time progress curves were recorded.
The kinetics of puromycin reaction on the 70S or 80S ribosomes were recorded and analyzed essentially as described. An aliquot (4.5 μl) of the complex prior to addition of puromycin was quenched in 30 μl of saturated MgSO4 in 0.1 M NaOAc to represent the zero-time point. Five microliters of 500 µM puromycin (in the same buffer as that used for the ribosomal complex) was added to 45 μl of the complex to initiate the reaction, yielding estimated final concentrations: 30 nM for the ribosome, 1 µM mRNA, 66 nM [^35S]-fMet-tRNA^fMet, 50 µM puromycin, and varying concentrations of PRn and GRn peptides, from 30 nM to 2 μM. After 6, 15, 30, 90 s, and 5, 15, 30, 60, and (for slower reactions) 180 min, 5-μl aliquots were quenched in 30 μl of saturated MgSO4 in 0.1 M NaOAc. All quenched samples were extracted with 700 μl ethyl-acetate. 600 μl of the extract were mixed with 3.5 ml of Econo-Safe scintillation cocktail (RPI), and the amount of released [^35S]-labeled dipeptide was measured for each time point using a scintillation counter (Beckman Coulter, Inc.).
All time progress curves were recorded in duplicates, using independently prepared 70S or 80S complexes. Reaction rates were calculated using single-exponential or double-exponential (80S complexes) regressions for different concentrations of PRn and GRn using GraphPad Prism 8. Hyperbola fitting in Gnuplot was used to derive apparent Ki-values.

[2] = system: ribosomes on endogenous globin mRNAs in RRL; assay: Polysome profiling of RRL translating endogenous mRNA; type: biochemical, rabbit; conditions: 4 μM PR20, 4 μM GR20, 1 mM GDPCP; 5 min
Experimental: Polysome profiles were obtained using RRL untreated with nuclease, so that it contained endogenous mRNA. 100 μl reactions containing 50% RRL (Green Hectare) 30 μM hemin (Sigma), 75 mM KCl, 0.5 mM MgCl2, 1 mM ATP, 0.2 mM GTP, 2.1 mg/ml creatine phosphate, 30 μM of L-amino acid mix, 15 mg/ml yeast tRNA, 6 mM BME and, when appropriate, translation inhibitors (4 μM PR20, 4 μM GR20, cycloheximide, 40 μM harringtonine, or 1 mM GDPCP with 1 mM MgCl2) were assembled on ice. To start translation, the reactions were warmed in a heat block at either 30 °C or 37 °C as noted. After 5 min, reactions were terminated by addition of 100 μl of ice-cold Stop Buffer (50 mM Hepes-KOH pH 7.4, 150 mM KOAc, 10 mM Mg(OAc)2, and 200 μg/ml cycloheximide). The stopped reactions were applied to 10–50% sucrose gradients in Gradient Buffer (50 mM Hepes-KOH pH 7.4, 150 mM KOAc, 10 mM Mg(OAc)2, 2 mM DTT, and 100 μg/ml cycloheximide) and spun in an SW-41 rotor (Beckman Coulter) at 197,568xg (avg) for 2 h at 4 °C. Gradients were pumped on a Gradient Station (BioComp Instruments) at a pump rate of 0.29 mm/min and the absorbance at 254 nm was measured by an Econo UV monitor (Biorad) zeroed with 10% sucrose-gradient buffer. The traces were output as CSV files and imported into GraphPad Prism, where the 80S peaks were aligned. Controls were highly reproducible day-to-day. Each experimental condition is shown compared to concurrent, uninhibited control.

N=C(N)NCCC[C@H](NC(=O)CNC(=O)[C@H](CCCNC(=N)N)NC(=O)CNC(=O)[C@H](CCCNC(=N)N)NC(=O)CNC(=O)[C@H](CCCNC(=N)N)NC(=O)CNC(=O)[C@H](CCCNC(=N)N)NC(=O)CNC(=O)[C@H](CCCNC(=N)N)NC(=O)CNC(=O)[C@H](CCCNC(=N)N)NC(=O)CNC(=O)[C@H](CCCNC(=N)N)NC(=O)CNC(=O)[C@H](CCCNC(=N)N)NC(=O)CNC(=O)[C@H](CCCNC(=N)N)NC(=O)CNC(=O)[C@H](CCCNC(=N)N)NC(=O)CNC(=O)[C@H](CCCNC(=N)N)NC(=O)CNC(=O)[C@H](CCCNC(=N)N)NC(=O)CNC(=O)[C@H](CCCNC(=N)N)NC(=O)CNC(=O)[C@H](CCCNC(=N)N)NC(=O)CNC(=O)[C@H](CCCNC(=N)N)NC(=O)CNC(=O)[C@H](CCCNC(=N)N)NC(=O)CNC(=O)[C@H](CCCNC(=N)N)NC(=O)CNC(=O)[C@H](CCCNC(=N)N)NC(=O)CNC(=O)[C@H](CCCNC(=N)N)NC(=O)CN)C(=O)O [GR20]
concentration needed to inhibit translation in E. coli lysate [1]: > 10 µM
effect on peptidyl transfer on rabbit 80S (rabbit 80S ribosomes; 2 µM, n=2): inhibits peptidyl transfer
polysome profile, half-mer peaks [2]: appearance of half-mer peaks

PRPRPRPRPRPRPRPRPRPRPRPRPRPRPRPRPRPRPRPR [PR20]
concentration needed to inhibit translation in E. coli lysate [1]: ≥ 5 µM
concentration at which inhibition of peptidyl transfer starts (rabbit 80S ribosomes; 30 nM 80S): ~ 100 nM
polysome profile, half-mer peaks [2]: appearance of half-mer peaks
